Measurements as given in US4539152A, “4-Substituted-2-oxoazetidine compounds” (Fujisawa Pharmaceutical Co., Ltd., priority 1980, dated 1985).

What was measured:
Staphylococcus aureus 6 = test: antimicrobial activity, minimal inhibitory concentration (agar streak); format: cell-based; details: heart infusion agar, 37° C., 20 hours, overnight culture 10^8 viable cells per ml
Procedure: (§1) One loopful of an overnight culture of each test strain in Trypticase-soy broth (10^8 viable cells per ml.) was streaked on heart infusion agar (HI-agar) containing graded concentrations of antibiotics, and the minimal inhibitory concentration (MIC) was expressed in terms of μg/ml after incubation at 37° C. for 20 hours.

[1] = test system: Pseudomonas aeruginosa NCTC-10490; test: as above; format: cell-based; details: NCTC10490, heart infusion agar, 37° C., 20 hours, overnight culture 10^8 viable cells per ml
Procedure: as §1

Compound: CC(C)(O)[C@@H]1C(=O)N2C(C(=O)[O-])=C(SCCN)C[C@H]12.[K+] [potassium (5R,6R)-3-(2-aminoethylthio)-6-(1-hydroxy-1-methylethyl)-7-oxo-1-azabicyclo[3.2.0]hept-2-ene-2-carboxylate]
- MIC (Staphylococcus aureus 6): 1.56 µg/mL
- MIC [1]: 12.5 µg/mL
